Results from ChEMBL document CHEMBL4184181, “Evaluation of alkylating pyrrole-imidazole polyamide conjugates by a novel method for high-throughput sequencer” (Bioorg Med Chem, 2018).
Active and inactive are the calls of the source. The calls are words filed in the database; no cut-off is given here.

What was measured:
[1] = tested on: A549; experiment: Cytotoxicity against human A549 cells after 48 hrs by WST8 assay; type: functional, cell-based; settings: A549, 48 h
[2] = organism: Bos taurus; experiment: Alkylating activity at ATACCTC sequence of calf thymus DNA assessed as enrichment ratio by measuring ratio of sample to input control after 1 hr by MERMADE method; type: functional
[3] = organism: Bos taurus; experiment: Alkylating activity at GAGGTGA sequence of calf thymus DNA assessed as enrichment ratio by measuring ratio of sample to input control after 1 hr by MERMADE method; type: functional
[4] = organism: Bos taurus; experiment: Alkylating activity at CACCTCA sequence of calf thymus DNA assessed as enrichment ratio by measuring ratio of sample to input control after 1 hr by MERMADE method; type: functional
[5] = organism: Bos taurus; experiment: Alkylating activity at ACCTCTA sequence of calf thymus DNA assessed as enrichment ratio by measuring ratio of sample to input control after 1 hr by MERMADE method; type: functional
[6] = organism: Bos taurus; experiment: Alkylating activity at TACCTCA sequence of calf thymus DNA assessed as enrichment ratio by measuring ratio of sample to input control after 1 hr by MERMADE method; type: functional
[7] = organism: Bos taurus; experiment: Alkylating activity at AGGTGAG sequence of calf thymus DNA assessed as enrichment ratio by measuring ratio of sample to input control after 1 hr by MERMADE method; type: functional
[8] = organism: Bos taurus; experiment: Alkylating activity at CTACCTC sequence of calf thymus DNA assessed as enrichment ratio by measuring ratio of sample to input control after 1 hr by MERMADE method; type: functional
[9] = organism: Bos taurus; experiment: Alkylating activity at GTGAGGA sequence of calf thymus DNA assessed as enrichment ratio by measuring ratio of sample to input control after 1 hr by MERMADE method; type: functional
[10] = organism: Bos taurus; experiment: Alkylating activity at ACCTCAA sequence of calf thymus DNA assessed as enrichment ratio by measuring ratio of sample to input control after 1 hr by MERMADE method; type: functional
[11] = organism: Bos taurus; experiment: Alkylating activity at ACCTCAC sequence of calf thymus DNA assessed as enrichment ratio by measuring ratio of sample to input control after 1 hr by MERMADE method; type: functional
[12] = organism: Bos taurus; experiment: Alkylating activity at CCTCACC sequence of calf thymus DNA assessed as enrichment ratio by measuring ratio of sample to input control after 1 hr by MERMADE method; type: functional
[13] = organism: Bos taurus; experiment: Alkylating activity at CCACCTC sequence of calf thymus DNA assessed as enrichment ratio by measuring ratio of sample to input control after 1 hr by MERMADE method; type: functional
[14] = organism: Bos taurus; experiment: Alkylating activity at ACTCCTC sequence of calf thymus DNA assessed as enrichment ratio by measuring ratio of sample to input control after 1 hr by MERMADE method; type: functional
[15] = organism: Bos taurus; experiment: Alkylating activity at ACCTCAG sequence of calf thymus DNA assessed as enrichment ratio by measuring ratio of sample to input control after 1 hr by MERMADE method; type: functional
[16] = organism: Bos taurus; experiment: Alkylating activity at CGACCTC sequence of calf thymus DNA assessed as enrichment ratio by measuring ratio of sample to input control after 1 hr by MERMADE method; type: functional
[17] = organism: Bos taurus; experiment: Alkylating activity at GAGGTTA sequence of calf thymus DNA assessed as enrichment ratio by measuring ratio of sample to input control after 1 hr by MERMADE method; type: functional
[18] = organism: Bos taurus; experiment: Alkylating activity at CCACTCC sequence of calf thymus DNA assessed as enrichment ratio by measuring ratio of sample to input control after 1 hr by MERMADE method; type: functional
[19] = organism: Bos taurus; experiment: Alkylating activity at ACCTCAT sequence of calf thymus DNA assessed as enrichment ratio by measuring ratio of sample to input control after 1 hr by MERMADE method; type: functional
[20] = organism: Bos taurus; experiment: Alkylating activity at CTCCACC sequence of calf thymus DNA assessed as enrichment ratio by measuring ratio of sample to input control after 1 hr by MERMADE method; type: functional
[21] = organism: Bos taurus; experiment: Alkylating activity at GGTGAGA sequence of calf thymus DNA assessed as enrichment ratio by measuring ratio of sample to input control after 1 hr by MERMADE method; type: functional
[22] = organism: Bos taurus; experiment: Alkylating activity at CTCTAGA sequence of calf thymus DNA assessed as enrichment ratio by measuring ratio of sample to input control after 1 hr by MERMADE method; type: functional
[23] = organism: Bos taurus; experiment: Alkylating activity at TACACTA sequence of calf thymus DNA assessed as enrichment ratio by measuring ratio of sample to input control after 1 hr by MERMADE method; type: functional
[24] = organism: Bos taurus; experiment: Alkylating activity at ATCACTA sequence of calf thymus DNA assessed as enrichment ratio by measuring ratio of sample to input control after 1 hr by MERMADE method; type: functional
[25] = organism: Bos taurus; experiment: Alkylating activity at ACCACTA sequence of calf thymus DNA assessed as enrichment ratio by measuring ratio of sample to input control after 1 hr by MERMADE method; type: functional
[26] = organism: Bos taurus; experiment: Alkylating activity at CCTCTAG sequence of calf thymus DNA assessed as enrichment ratio by measuring ratio of sample to input control after 1 hr by MERMADE method; type: functional
[27] = organism: Bos taurus; experiment: Alkylating activity at ATCTCTA sequence of calf thymus DNA assessed as enrichment ratio by measuring ratio of sample to input control after 1 hr by MERMADE method; type: functional
[28] = organism: Bos taurus; experiment: Alkylating activity at CCTCTAA sequence of calf thymus DNA assessed as enrichment ratio by measuring ratio of sample to input control after 1 hr by MERMADE method; type: functional
[29] = organism: Bos taurus; experiment: Alkylating activity at calf thymus DNA containing adenine at seventh position of motif by MR method; type: functional
[30] = organism: Bos taurus; experiment: Alkylating activity at AGTGGTA sequence of calf thymus DNA assessed as enrichment ratio by measuring ratio of sample to input control after 1 hr by MERMADE method; type: functional
[31] = organism: Bos taurus; experiment: Alkylating activity at CTAGTGA sequence of calf thymus DNA assessed as enrichment ratio by measuring ratio of sample to input control after 1 hr by MERMADE method; type: functional
[32] = organism: Bos taurus; experiment: Alkylating activity at ACCATTA sequence of calf thymus DNA assessed as enrichment ratio by measuring ratio of sample to input control after 1 hr by MERMADE method; type: functional
[33] = organism: Bos taurus; experiment: Alkylating activity at CCTCTAC sequence of calf thymus DNA assessed as enrichment ratio by measuring ratio of sample to input control after 1 hr by MERMADE method; type: functional
[34] = organism: Bos taurus; experiment: Alkylating activity at ACTAGTG sequence of calf thymus DNA assessed as enrichment ratio by measuring ratio of sample to input control after 1 hr by MERMADE method; type: functional
[35] = organism: Bos taurus; experiment: Alkylating activity at TCACTAA sequence of calf thymus DNA assessed as enrichment ratio by measuring ratio of sample to input control after 1 hr by MERMADE method; type: functional
[36] = organism: Bos taurus; experiment: Alkylating activity at TAGTGAA sequence of calf thymus DNA assessed as enrichment ratio by measuring ratio of sample to input control after 1 hr by MERMADE method; type: functional
[37] = organism: Bos taurus; experiment: Alkylating activity at CCACTAA sequence of calf thymus DNA assessed as enrichment ratio by measuring ratio of sample to input control after 1 hr by MERMADE method; type: functional
[38] = organism: Bos taurus; experiment: Alkylating activity at CACTAGA sequence of calf thymus DNA assessed as enrichment ratio by measuring ratio of sample to input control after 1 hr by MERMADE method; type: functional
[39] = organism: Bos taurus; experiment: Alkylating activity at CCACTAG sequence of calf thymus DNA assessed as enrichment ratio by measuring ratio of sample to input control after 1 hr by MERMADE method; type: functional
[40] = organism: Bos taurus; experiment: Alkylating activity at CCTCAAG sequence of calf thymus DNA assessed as enrichment ratio by measuring ratio of sample to input control after 1 hr by MERMADE method; type: functional

CC(=O)Nc1cn(C)c(C(=O)Nc2cn(C)c(C(=O)Nc3cn(C)c(C(=O)Nc4cn(C)c(C(=O)NCC[C@@H](NC(=O)OC(C)(C)C)C(=O)Nc5ccc(C(=O)Nc6cn(C)cc6C(=O)Nc6ccc7[nH]c(C(=O)N8CC(CCl)c9c8cc(O)c8ccccc98)cc7c6)n5C)n4)n3)n2)n1 (stereo partly drawn)
IC50 [1]: 120 nM

CC(=O)Nc1cn(C)c(C(=O)Nc2cn(C)c(C(=O)Nc3cn(C)c(C(=O)Nc4cn(C)c(C(=O)NCC[C@@H](NC(=O)OC(C)(C)C)C(=O)Nc5ccc(C(=O)Nc6cn(C)cc6C(=O)Nc6cn(C)cc6C(=O)Nc6ccc7[nH]c(C(=O)N8CC(CCl)c9c8cc(O)c8ccccc98)cc7c6)n5C)n4)n3)n2)n1 (stereo partly drawn)
IC50 [1]: 63 nM

CC(=O)Nc1cn(C)c(C(=O)Nc2cn(C)c(C(=O)Nc3cn(C)c(C(=O)Nc4cn(C)c(C(=O)NCC[C@@H](NC(=O)CCOCCOCCOCCOCCOCCOCCOCCOCCOCCOCCOCCOCCNC(=O)CCCC[C@@H]5SC[C@@H]6NC(=O)N[C@@H]65)C(=O)Nc5ccc(C(=O)Nc6cn(C)cc6C(=O)Nc6ccc7[nH]c(C(=O)N8CC(CCl)c9c8cc(O)c8ccccc98)cc7c6)n5C)n4)n3)n2)n1 (stereo partly drawn)
Ratio [2]: 2.02 | Ratio [3]: 2.06 | Ratio [4]: 2.44 | Ratio [5]: 2.01 | Ratio [6]: 2.48 | Ratio [7]: 2.24 | Ratio [8]: 2.12 | Ratio [9]: 2.02 | Ratio [10]: 2.07 | Ratio [11]: 2.69 | Ratio [12]: 2.65 | Ratio [13]: 2.4 | Ratio [14]: 2 | Ratio [15]: 2.05 | Ratio [16]: 2 | Ratio [17]: 2.21 | Ratio [18]: 2.04 | Ratio [19]: 2.17 | Ratio [20]: 2.06 | Ratio [21]: 2.06

CC(=O)Nc1cn(C)c(C(=O)Nc2cn(C)c(C(=O)Nc3cn(C)c(C(=O)Nc4cn(C)c(C(=O)NCC[C@@H](NC(=O)CCOCCOCCOCCOCCOCCOCCOCCOCCOCCOCCOCCOCCNC(=O)CCCC[C@@H]5SC[C@@H]6NC(=O)N[C@@H]65)C(=O)Nc5ccc(C(=O)Nc6cn(C)cc6C(=O)Nc6cn(C)cc6C(=O)Nc6ccc7[nH]c(C(=O)N8CC(CCl)c9c8cc(O)c8ccccc98)cc7c6)n5C)n4)n3)n2)n1 (stereo partly drawn)
Ratio [22]: 3.68 | Ratio [5]: 6.96 | Ratio [23]: 3.63 | Ratio [24]: 4.94 | Ratio [25]: 5.11 | Ratio [26]: 4.45 | Ratio [27]: 3.46 | Ratio [28]: 3.79 | Activity [29]: Active | Ratio [30]: 3.37 | Ratio [10]: 4.19 | Ratio [31]: 3.82 | Ratio [32]: 3.28 | Ratio [33]: 3.33 | Ratio [34]: 3.82 | Ratio [35]: 3.61 | Ratio [36]: 4.34 | Ratio [37]: 3.16 | Ratio [38]: 3.64 | Ratio [39]: 4.13 | Ratio [40]: 3.19
